How the values were obtained:
LCN2 = LCN2 ELISA after recombinant cytokine stimulation; type: cell-based; conditions: recombinant cytokine added to artificial CSF; PC9, MDA231 or LLC LeptoM cells; ELISA at 48 h
Description: FIG. 11A-11E. Proinflammatory cytokines in human CSF. (A) LCN2 was quantified by ELISA in the CSF from patients harboring LM was treated with neutralizing antibody against IL-6 or IL-8 and added to MDA231-LeptoM cells for 12 hours. N=3 in each of two independent experiments. NS=not significant, * indicates p<0.05, ** indicates p<0.01, *** indicates p<0.001 (unpaired t test). Data represent mean±SEM. (B) Evaluation of LCN2 expression by ELISA with the treatment of pro-inflammatory cytokines IL-6, IL-8, IL-1β and TNF in PC9-Par and PC9-LeptoM cells. LCN2 expression was determined by ELISA of conditioned media collected 48 hours after recombinant cytokine stimulation. N=3 in each of two independent experiments. *indicates p<0.05 (unpaired t test). Data represent mean±SEM. (C) LCN2 expression by ELISA 48 h after treatment of MDA-Par and MDA-LeptoM cells with IL-6, IL-8, IL-1β and TNF. LCN2 expression by ELISA in conditioned media for 48 hours after recombinant cytokines stimulation. N=3 in each of two independent experiments. *indicates p<0.05 (unpaired t test). Data represent mean±SEM. (D) LCN2 expression by ELISA 48 h after treatment of LLC-Par and LLC-LeptoM cells with IL-6, IL-1β and TNF. N=3 in each of two independent experiments. * indicates p<0.05 (unpaired t test). Data represent mean±SEM. (E) Visualization of macrophage cells in first two diffusion components. First diffusion component is best matched by Hypoxia as indicated with GSEA es=0.6, fdr=0 and M1 phenotype es=−0.5, fdr=0.11, while second diffusion component is best matched by M2 phenotype es=0.7, fdr=0. MAGIC imputed gene set expression was standardized to zero mean and unit of standard deviation.
Secreted protein detection. Human LCN2 (Abcam, ab215541), Hepcidin (R&D, DHP250), Transferrin (Abcam, ab187391), Ferritin (LSBio, LS-F428-1), IL-6 (R&D, D6050), IL-8 (R&D, D8000C), IL-1β (R&D, DLB50), TNF expression (Abcam, ab181421) in CSF patient samples or cell culture supernatants were measured using ELISA kits according to manufacturer's instructions. […]

PC9-LeptoM cells = test: Cell associated iron and viability of PC9-LeptoM cells after knockdown of SLC22A17 or LCN2; type: cell-based, human; conditions: 100 μg/mL diferric Tf added in vitro
Excerpt: (§1) FIG. 14A-14K. Leptomeningeal metastasis requires iron transporters. (A) Total iron measured by mass spectroscopy in CSF cancer patients with and without LM. Presence of LM is indicated +/−. N=11 cancer patients without LM and n=12 cancer patients with LM. * indicates p<0.05 (unpaired t test). Data represent mean±SEM. (B) LCN2 iron binding assay in patient CSF. Non-LCN2-bound iron [NLBI] and LCN2-bound iron [LBI] was detected in the CSF from cancer patients with or without LM. N=10. **** indicates p<0.0001 (unpaired t test). Data represent mean±SEM. (C) Expression of genes associated with iron transport in parental cells and LeptoM cells by bulk RNA sequencing. N=2 in PC9 cells and n=3 in LeptoM cells. Presented as log 2 fold change in each group with cutoff <20 normalized counts. (D) Tumor growth in mice injected with PC9-LeptoM cells expressing shCtl or shLCN2. Treatment with either vehicle or 5 mg/Ml holo-transferrin (diferric [Tf]) was commenced on day 1 and continued every third day for a total of 7 doses. Left: Histogram represents in vivo BLI imaging post-inoculation at day 21. […] Iron measured by colorimetric assay. […] Intracellular iron was determined by colorimetric assay. […]
Cell Viability Assay. […] The CellTiter-Glo Luminescent Cell Viability Assay (Promega G9241) was used to quantify viable cells in culture according to the manufacturer's protocols. […]

[1] = test system: LeptoM cells expressing shLCN2; test: Tumor growth in mice injected with LeptoM cells expressing shLCN2, treated with holo-transferrin; type: in vivo, mouse; conditions: 5 mg/mL holo-transferrin intracisternal every third day, 7 doses
Excerpt: as §1, with “21. N=6-8 per group in each of two independent experiments. Right: Representative BLI images. Sh1+Veh vs sh1+Tf, p=0.2087. sh2+Veh vs sh2+Tf, p=0.0604. Data represent mean±SEM.” for “21.”

Substance	expression of LCN2 (LCN2)	cell growth after SLC22A17 or LCN2 knockdown (PC9-LeptoM cells)	intracellular iron accumulation after SLC22A17 or LCN2 knockdown (PC9-LeptoM cells)	rescue of LCN2 knockdown by shRNA in vivo (tumor growth, survival) [1]
IL-1β: recombinant IL-1β (R&D) added to culture media	induced expression of LCN2	–	–	–
IL-6: recombinant IL-6 (R&D) added to culture media	induced expression of LCN2	–	–	–
IL-8: recombinant IL-8 (R&D) added to culture media	induced expression of LCN2	–	–	–
transferrin: iron-loaded (diferric) holo-transferrin, Invitria 777TRF029	–	rescued	rescued	partially rescued

Source: patent US20240050385A1, “METHODS OF TREATING LEPTOMENINGEAL METASTASIS” (MEMORIAL SLOAN-KETTERING CANCER CENTER, priority 2020, published 2024)
